Measured values as given in patent US7678365B2, “Disinfecting oral rinse compositions and process for using the same” (priority 2001, dated 2010).

What was measured:
E. coli = assay: AOAC Germicidal Test procedure; assay type: cell-based; details: for E. coli organisms destroyed/killed: initial inoculum of E. coli 7.63 logs10/ml, equimolar amounts of the unionized acid form
From the text: […]. […] […].

[1] = Acid ionization constants and lactic acid/lactate speciation; assay type: physicochemical
From the text: […]. When citric acid is used as the supplemental acid, less total acid is required to achieve a desired pH than, say, when using malic acid, which is half the strength of citric (Ka1 of citric is 8.2×10^−4 vs. 3.9×10^−4 for malic acid). Thus a smaller amount of lactic acid is used when it represents, say, 10% of a lactic/citric combination than a lactic/malic combination; […]. In certain embodiments, the metal lactate in these compositions is an alkali, an alkaline earth lactate, or a heavier metal lactate. […]. Useful alkaline earth metal lactates include magnesium and calcium lactate. Available heavier metal lactates are ferrous and aluminum lactates, although the cation flavor is intrusive. […]. At pH 2.5 96% of the two lactic species exist as lactic acid, which drops to 70% at pH 3.5. […].
The acid and chlorite solutions had first been equilibrated at 37° C., to simulate body temperature. The solution pHs, in both cases, were 3.0. After 10 minutes, the solution Absorbance values were measured at a wavelength of 360 nm in a spectrophotometer, and the concentration of chlorine dioxide (ClO2) then calculated, using the molar extinction coefficient of 1,242 liter/mole.cm. […]

Row | Structure (SMILES) | E. coli organisms destroyed/killed (E. coli) [logs10/ml] | residual E. coli organisms per ml after disinfection, malic acid-treated relative to lactic acid-treated suspension (E. coli; malic acid vs lactic acid) [times] | fraction of the two lactic species existing as lactic acid ([1]; pH 2.5) [%] | fraction of the two lactic species existing as lactic acid ([1]; pH 3.5) [%] | fraction of the two lactic species existing as lactic acid ([1]; pH 4.0) [%]
1 | O=C(O)CC(O)C(=O)O (stereo not drawn) [malic acid] | 1.45 | ~1500 | – | – | –
2 | CC(O)C(=O)O (stereo not drawn) [lactic acid] | 4.15 | – | 96 | 70 | 42
